Non-standard residues stand in square brackets, D forms with d. Residues, ends and D or L forms follow the SMILES beside them. *: point of attachment. Cbz = O=C(OCc1ccccc1)*; Bn = c1ccc(C*)cc1
System: LRF-induced luteinizing hormone (LH) release in rat anterior pituitary cell cultures
Assay: In vitro test in rat anterior pituitary cell cultures: inhibition of LRF-induced LH release into the culture medium
Format: cell-based
Method: octapeptides of this invention are screened for LRF antagonist activity in vitro using rat anterior pituitary cell cultures as described by Vale et al. [Endocrinology, 91, 562 (1972)]. The inhibition of LRF-induced luteinizing hormone (LH) release into the culture medium is the endpoint in this in vitro bioassay. Active peptides are then tested in vivo by the procedures of Humphrey et al. [Endocrinology, 92, 1515 (1972)]. Antagonist activity is assessed by the inhibition of LRF-induced LH release in the female rat and LRF-induced ovulation in the rabbit.
Following are the results of the above in vitro tests on certain preferred compounds.

[1] = compound 1×10^-8 molar, LRF 5×10^-10, LRF control 46.58, saline control 9.10
[2] = compound 1×10^-9 molar, LRF 5×10^-10, LRF control 46.58, saline control 9.10
[3] = compound 5×10^-8 molar, LRF 5×10^-10, LRF control 46.58, saline control 9.10
[4] = compound 5×10^-9 molar, LRF 5×10^-10, LRF control 46.58, saline control 9.10
[5] = compound 1×10^-8 molar, LRF 3.5×10^-10, LRF control 42.38, saline control 8.72
[6] = compound 1×10^-9 molar, LRF 3.5×10^-10, LRF control 42.38, saline control 8.72
[7] = compound 1×10^-10 molar, LRF 3.5×10^-10, LRF control 42.38, saline control 8.72
[8] = compound 2×10^-9 molar, LRF 3.5×10^-10, LRF control 42.38, saline control 8.72
[9] = compound 2.5×10^-10 molar, LRF 3.5×10^-10, LRF control 42.38, saline control 8.72
[10] = compound 3.5×10^-9 molar, LRF 3.5×10^-10, LRF control 42.38, saline control 8.72
[11] = compound 6×10^-9 molar, LRF 3.5×10^-10, LRF control 42.38, saline control 8.72
[12] = compound 6×10^-10 molar, LRF 3.5×10^-10, LRF control 42.38, saline control 8.72
[13] = first series, compound 1×10^-8 molar, LRF 5×10^-10, LRF control 52.80, saline control 13.28
[14] = first series, compound 1×10^-9 molar, LRF 5×10^-10, LRF control 52.80, saline control 13.28
[15] = first series, compound 1×10^-10 molar, LRF 5×10^-10, LRF control 52.80, saline control 13.28
[16] = first series, compound 2.5×10^-9 molar, LRF 5×10^-10, LRF control 52.80, saline control 13.28
[17] = first series, compound 2.5×10^-10 molar, LRF 5×10^-10, LRF control 52.80, saline control 13.28
[18] = first series, compound 5×10^-9 molar, LRF 5×10^-10, LRF control 52.80, saline control 13.28
[19] = first series, compound 5×10^-10 molar, LRF 5×10^-10, LRF control 52.80, saline control 13.28
[20] = second series, compound 1×10^-9 molar, LRF 5×10^-10, LRF control 69.43, saline control 18.17
[21] = second series, compound 1×10^-10 molar, LRF 5×10^-10, LRF control 69.43, saline control 18.17
[22] = second series, compound 2.5×10^-9 molar, LRF 5×10^-10, LRF control 69.43, saline control 18.17
[23] = second series, compound 2.5×10^-10 molar, LRF 5×10^-10, LRF control 69.43, saline control 18.17
[24] = second series, compound 5×10^-10 molar, LRF 5×10^-10, LRF control 69.43, saline control 18.17
[25] = compound 2×10^-8 molar, LRF 3.5×10^-10, LRF control 42.38, saline control 8.72

## CCNC(=O)[C@@H]1CCCN1C(=O)[C@H](CCCNC(=N)N)NC(=O)[C@H](CC(C)C)NC(=O)[C@@H](Cc1ccccc1)NC(=O)[C@H](Cc1ccc(O)cc1)NC(=O)[C@H](CO)NC(=O)[C@H](Cc1c[nH]c2ccccc12)NC(=O)[C@H](CCC(N)=O)NC(=O)OCc1ccccc1 [N^α -Benzyloxycarbonyl-L-glutaminyl-L-tryptophyl-L-seryl-L-tyrosyl-D-phenylalanyl-L-leucyl-L-arginyl-L-proline N-ethylamide] (Cbz-QWSY[dF]LRP-NHEt)
[1]
  % LH Release Inhibition: 71%
  LH Value: 19.91 ng/mL
[2]
  % LH Release Inhibition: 23%
  LH Value: 38.13 ng/mL
[3]
  % LH Release Inhibition: 95%
  LH Value: 11.16 ng/mL
[4]
  % LH Release Inhibition: 42%
  LH Value: 30.85 ng/mL

## CCNC(=O)[C@@H]1CCCN1C(=O)[C@H](CCCNC(=N)N)NC(=O)[C@H](CC(C)C)NC(=O)[C@@H](Cc1ccccc1)NC(=O)[C@H](Cc1ccc(O)cc1)NC(=O)[C@H](CO)NC(=O)[C@H](Cc1c[nH]c2ccccc12)NC(=O)[C@H](COCc1ccccc1)NC(=O)OCc1ccccc1.Cl [N^α -Benzyloxycarbonyl-O-benzyl-L-seryl-L-tryptophyl-L-seryl-L-tyrosyl-D-phenylalanyl-L-leucyl-L-arginyl-L-proline N-ethylamide hydrochloride] (Cbz-S(Bn)WSY[dF]LRP-NHEt)
[5]
  % LH Release Inhibition: 99%
  LH Value: 9.16 ng/mL
[6]
  % LH Release Inhibition: 68%
  LH Value: 19.35 ng/mL
[7]
  % LH Release Inhibition: 18%
  LH Value: 36.48 ng/mL
[8]
  % LH Release Inhibition: 83%
  LH Value: 14.48 ng/mL
[9]
  % LH Release Inhibition: 37%
  LH Value: 29.88 ng/mL
[10]
  % LH Release Inhibition: 93%
  LH Value: 11.16 ng/mL
[11]
  % LH Release Inhibition: 93%
  LH Value: 10.95 ng/mL
[12]
  % LH Release Inhibition: 50%
  LH Value: 25.41 ng/mL

## LRF: luteinizing hormone releasing factor, also referred to as luteinizing hormone releasing hormone, or LH-RH; stimulates secretion of luteinizing hormone (QHWSYGLRPG; Gonadoliberin-1; UniProt P01148 24-33, looked up) [reference compound]
LRF alone 3.5×10^-10 molar, saline control 8.72
  LH Value: 42.38 ng/mL
LRF alone 5×10^-10 molar, saline control 9.10
  LH Value: 46.58 ng/mL
First series, LRF alone 5×10^-10 molar, saline control 13.28
  LH Value: 52.80 ng/mL
Second series, LRF alone 5×10^-10 molar, saline control 18.17
  LH Value: 69.43 ng/mL

## N^α -BENZYLOXYCARBONYL-O-BENZYL-L-SERYL-L-TRYPTOPHYL-L-SERYL-L-TYROSYL-D-PENTAMETHYLPHENYLALANYL-L-LEUCYL-L-ARGINYL-L-PROLINE N-ETHYLAMIDE
[13]
  % LH Release Inhibition: 104%
  LH Value: 11.58 ng/mL
[14]
  % LH Release Inhibition: 91%
  LH Value: 16.69 ng/mL
[15]
  % LH Release Inhibition: 36%
  LH Value: 38.59 ng/mL
[16]
  % LH Release Inhibition: 105%
  LH Value: 11.35 ng/mL
[17]
  % LH Release Inhibition: 47%
  LH Value: 34.06 ng/mL
[18]
  % LH Release Inhibition: 100%
  LH Value: 13.16 ng/mL
[19]
  % LH Release Inhibition: 70%
  LH Value: 25.16 ng/mL
[20]
  % LH Release Inhibition: 104%
  LH Value: 16.00 ng/mL
[21]
  % LH Release Inhibition: 46%
  LH Value: 46.11 ng/mL
[22]
  % LH Release Inhibition: 98%
  LH Value: 19.09 ng/mL
[23]
  % LH Release Inhibition: 77%
  LH Value: 30.08 ng/mL
[24]
  % LH Release Inhibition: 90%
  LH Value: 23.26 ng/mL

## N^α -Benzyloxycarbonyl-N^γ -benzyl-L-glutaminyl-L-tryptophyl-L-seryl-L-tyrosyl-D-phenylalanyl-L-leucyl-L-arginyl-L-proline N-ethylamide
[5]
  % LH Release Inhibition: 92%
  LH Value: 11.28 ng/mL
[6]
  % LH Release Inhibition: 56%
  LH Value: 23.66 ng/mL
[7]
  % LH Release Inhibition: 35%
  LH Value: 30.60 ng/mL
[25]
  % LH Release Inhibition: 94%
  LH Value: 10.77 ng/mL
[8]
  % LH Release Inhibition: 60%
  LH Value: 22.09 ng/mL
[9]
  % LH Release Inhibition: 20%
  LH Value: 35.62 ng/mL
[10]
  % LH Release Inhibition: 61%
  LH Value: 21.76 ng/mL
[11]
  % LH Release Inhibition: 81%
  LH Value: 15.07 ng/mL
[12]
  % LH Release Inhibition: 51%
  LH Value: 25.13 ng/mL

## N^α -Benzyloxycarbonyl-O-benzyl-L-seryl-L-tryptophyl-L-seryl-L-tyrosyl-DL-pentamethylphenylalanyl-L-leucyl-L-arginyl-L-proline N-ethylamide
[13]
  % LH Release Inhibition: 102%
  LH Value: 12.61 ng/mL
[14]
  % LH Release Inhibition: 89%
  LH Value: 17.58 ng/mL
[16]
  % LH Release Inhibition: 102%
  LH Value: 12.47 ng/mL
[17]
  % LH Release Inhibition: 61%
  LH Value: 28.53 ng/mL
[18]
  % LH Release Inhibition: 96%
  LH Value: 14.80 ng/mL
[19]
  % LH Release Inhibition: 62%
  LH Value: 28.31 ng/mL
[20]
  % LH Release Inhibition: 100%
  LH Value: 18.35 ng/mL
[21]
  % LH Release Inhibition: 42%
  LH Value: 48.03 ng/mL
[22]
  % LH Release Inhibition: 108%
  LH Value: 13.91 ng/mL
[23]
  % LH Release Inhibition: 65%
  LH Value: 36.04 ng/mL
[24]
  % LH Release Inhibition: 87%
  LH Value: 24.94 ng/mL

Reference: US4111923A, “Octapeptides and methods for their production” (Parke, Davis & Company, priority 1976, dated 1978)
